For one data set, the target named is T1, Human FAAH (MBPΔTMhFAAH) (Homo sapiens, UniProt O00519).
T1 construct: made in house; host or cells: E. coli (pMALcE4 vector)
T1 sequence (O00519 30-579 limits assumed): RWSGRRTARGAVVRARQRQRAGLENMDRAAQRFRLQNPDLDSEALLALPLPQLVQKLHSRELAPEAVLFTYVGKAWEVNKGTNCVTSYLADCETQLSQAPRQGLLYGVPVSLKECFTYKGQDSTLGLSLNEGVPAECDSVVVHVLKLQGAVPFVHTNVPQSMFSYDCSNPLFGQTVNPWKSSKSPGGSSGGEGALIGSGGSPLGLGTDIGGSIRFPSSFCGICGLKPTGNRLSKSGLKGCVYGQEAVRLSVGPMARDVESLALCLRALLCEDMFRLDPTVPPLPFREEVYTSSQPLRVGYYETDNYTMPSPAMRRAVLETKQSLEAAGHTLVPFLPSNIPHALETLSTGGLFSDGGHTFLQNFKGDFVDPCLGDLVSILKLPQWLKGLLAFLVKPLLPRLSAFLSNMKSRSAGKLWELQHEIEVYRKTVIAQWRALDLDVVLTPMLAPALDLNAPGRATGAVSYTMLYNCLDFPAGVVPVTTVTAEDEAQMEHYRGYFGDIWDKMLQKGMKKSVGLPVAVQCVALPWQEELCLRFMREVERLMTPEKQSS
The data set can be described thus: Fluorescent assay protocol for hFAAH. Particulars: human FAAH (MBP fusion, ΔTM), procedure as for rFAAH. The format is biochemical. In short, it runs like this: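 MBP-fused ΔTM human FAAH from E. coli, pre-incubated 15 min at 25 °C with compound in 50 mM HEPES, 1 mM EDTA, 0.1% BSA, pH 7.4 (DMSO below 8%). Substrate AAMCA 20 μM (2×Km); fluorescence (ex 360/em 460) at 3 h gave % inhibition vs uninhibited control, triplicate, IC50 fitted.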

Data set [1] concerns LiCl-induced anticipatory nausea in rats. The data set can be described thus: Anticipatory nausea studies (LiCl-paired context, gapes). The format is in vivo, rat. The note with it: for amelioration of LiCl-induced anticipatory nausea: 20 mg/Kg; for Mean number of gapes elicited by a LiCl-paired context: 20 mg/Kg pretreatment, vehicle 22 gapes. From the text: Novel compounds were studied for their ability to ameliorate LiCl-induced anticipatory nausea in rats following the procedures described in Limebeer, C. L. et al Psychopharmacology (2014) 231:603-612. […] Mean number of gapes elicited by a LiCl-paired context in an anticipatory nausea test following pretreatment with a MAGL inhibitor compound 46 and dual FAAH/MAGL inhibitor 52 were 8 and 3 respectively, compared to animals treated with vehicle which show 22 gapes.

Data set [2] relates to human prostate cancer PC-3M cells. The data set can be described thus: Xenograft model of advanced prostate cancer. Particulars: nude mice, PC-3M xenograft, 20 mg/kg daily i.p. for 21 days. The format is in vivo, mouse. On the procedure: Compounds were studied for their abilities to retard tumor growth in mouse xenograft model expressing aggressive human prostate cancer PC-3M cells. Tumors were established in immunodeficient nude mice (Taconic Farms) according to standard protocol and mice were divided in two groups. Mouse in each group was injected intraperitoneally (i.p.) with vehicle or compounds (20 mg/kg daily) for 21 days. Tumor sizes were measured with callipers every 3 days.

For another data set, the target named is T2, ΔTM rat FAAH (Rattus norvegicus, UniProt P97612).
T2 construct: Preparation of Transmembrane Domain-Deleted Rat FAAH (ΔTM rFAAH); made in house; host or cells: E. coli
T2 sequence (P97612 30-579 limits assumed): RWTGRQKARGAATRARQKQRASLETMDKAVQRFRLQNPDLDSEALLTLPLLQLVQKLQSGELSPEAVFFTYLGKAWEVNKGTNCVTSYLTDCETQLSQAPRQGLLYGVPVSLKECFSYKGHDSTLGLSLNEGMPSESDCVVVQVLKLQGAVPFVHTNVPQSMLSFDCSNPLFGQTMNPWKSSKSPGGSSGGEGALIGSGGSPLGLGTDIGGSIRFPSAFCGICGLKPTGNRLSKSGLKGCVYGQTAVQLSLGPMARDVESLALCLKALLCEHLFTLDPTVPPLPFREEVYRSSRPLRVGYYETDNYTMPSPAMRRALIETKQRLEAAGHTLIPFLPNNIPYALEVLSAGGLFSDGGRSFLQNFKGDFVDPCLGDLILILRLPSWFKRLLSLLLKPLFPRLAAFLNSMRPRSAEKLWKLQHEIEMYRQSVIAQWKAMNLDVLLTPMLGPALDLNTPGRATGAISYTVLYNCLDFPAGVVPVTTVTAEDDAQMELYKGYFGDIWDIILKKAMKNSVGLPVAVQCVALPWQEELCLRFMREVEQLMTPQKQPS
The data set can be described thus: Fluorescent assay protocol for ΔTM rat FAAH (AAMCA substrate). The format is biochemical. Particulars: 15 min preincubation, read-out: IC50 rFAAH. The gist of the method:
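ΔTM rat FAAH (15 μg) was pre-incubated 15 min at 25° C with compound (screening at 1, 10 and 100 μM), then reacted with the fluorigenic substrate AAMCA. Percent inhibition came from fluorescence at 3 h (linear kinetics) relative to no-inhibitor controls, in triplicate.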

Data set [3] is described as follows: Blood brain barrier (BBB) permeability studies. Particulars: brain and plasma; blood-brain distribution, in vivo; read-out: brain/plasma ratio. The text has this:
Novel compounds were studied for their abilities to cross the blood brain barrier based on procedures adapted from Cluny, et al (2010), British journal of pharmacology 161: 629; Rahn, et al (2011) Pharmacology biochemistry, and behavior 98: 493; Wood et al (2013) Life sciences 92: 482.

The structures appear in SMILES notation. pIC50: −log10 of the molar value.

`N#Cc1cccc(OC(=O)N2CCC(C(c3ccccc3)c3ccccc3)CC2)c1` [Example 46, 3-Cyanophenyl 4-benzhydrylpiperidine-1-carboxylate]: the pIC50 at Human FAAH (MBPΔTMhFAAH) and on ΔTM rat FAAH was 7.00 to 8.00 throughout. The “amelioration of LiCl-induced anticipatory nausea” value in data set [1] is given as “ameliorated anticipatory nausea”. For the same compound, in data set [1], the “Mean number of gapes elicited by a LiCl-paired context” value stood at 8. Also, the “reduction in tumor sizes” value in data set [2] (compared to vehicle) worked out at 43%. Besides, the tumor sizes in data set [2] (vehicle 185 mm^3) came to 105 mm^3.
For the compound `N#Cc1cccc(OC(=O)N2CCC(Cc3ccccc3)CC2)c1` [Example 52, 3-cyanophenyl 4-benzylpiperidine-1-carboxylate], on Human FAAH (MBPΔTMhFAAH), the negative-log IC50 (pIC50) (in general, −log10 of the IC50, conventionally taken in molar units) was 7.00 to 8.00. In addition, in data set [1], the “amelioration of LiCl-induced anticipatory nausea” value is recorded as “ameliorated anticipatory nausea” and the “Mean number of gapes elicited by a LiCl-paired context” value turned out to be 3. In addition, in data set [3], the Kp came to 0.71.

The values are drawn from patent publication US11214578B2, “Urea/carbamates FAAH MAGL or dual FAAH/MAGL inhibitors and uses thereof” (Northeastern University, priority 2014, dated 2022).
